Source: ChEMBL document CHEMBL3832079, “DailyMed|setid=c8806b45-493a-4373-bce7-736e97f9f876 | DIVALPROEX SODIUM - divalproex sodium tablet, delayed release|REMEDYREPACK INC”
Where “and” joins values, the source holds several entries; their conditions need not be identical. Equal values may be shown once.

Experiments:
Homo sapiens [1] = assay: Evaluation of pharmacokinetic parameters for Valproic acid following oral administration of Divalproex Sodium.; format: ADME, organism-based; conditions: in vivo, dosed compound id 431, dosed compound name VALPROATE SALT, tissue Plasma
Homo sapiens [2] = assay: Evaluation of pharmacokinetic parameters for Valproic acid following single oral administration of Divalproex Sodium tablets or capsules.; format: ADME, organism-based; conditions: in vivo, dosed compound id 430, dosed compound name DIVALPROEX SODIUM, regimen Single dose, tissue Plasma

Compound: CCCC(CCC)C(=O)O [VALPROIC ACID]
- CL (Homo sapiens [1]; gender female): 4.7 L/hr/1.73 m2
- t1/2 (Homo sapiens [1]; gender male and female): 12 h and 18 h
- CL (Homo sapiens [1]; gender male): 4.8 L/hr/1.73 m2
- t1/2 (Homo sapiens [1]): 10 to 67 h and 7 to 13 h
- Tmax (Homo sapiens [2]; dietary status Fasting): 3.3 h and 4 h
- Tmax (Homo sapiens [2]; dietary status Fed): 4.8 h and 8 h
- t1/2 (Homo sapiens [2]; dose 250 to 1000 mg): 9 to 16 h
